Laboratory results from article PMC11672653 (Antibiotics, 2024).

Assays:
[1] = system: polyclonal antibodies against ERM (anti-ERM antibody); assay: Competitive indirect ELISA with anti-eremomycin antibody and heterologous VCM coating conjugates; type: binding, rabbit; conditions: for IC50: cross-reactivity study, eremomycin antibody-based ELISA for vancomycin (coating BSA-VCM×50f); for CR (cross-reactivity): relative to vancomycin = 100%, eremomycin antibody-based ELISA (coating BSA-VCM×50f)
Experimental: The coating conjugates were adsorbed in 96-well plates from solutions (0.05–1.5 µg/mL) in 0.1 mL CBB. After overnight incubation at 4 °C, the plates were washed three times with PBST to remove unbound reagent. Serial dilutions of antibodies in 0.1 mL 1% BSA-PBST were combined with standard (0, 0.01–10,000 ng/mL) in 0.1 mL PBST and incubated for 1 h at 25 °C. Following the washing procedure, the bound antibody was then detected using the GAR-HRP (1 h, 37 °C) in 0.1 mL of 1% BSA-PBS and subsequently washed out. The enzymatic activity was determined by the addition of TMB substrate (0.1 mL) to the wells, followed by the addition of 0.1 mL of 1 M sulfuric acid 30 min later, which terminated the reaction. The absorbance of the colored reaction product was read at 450 nm using a LisaScan spectrophotometer (Erba Mannheim, Karásek, Czech Republic).
The maximum optical output signal (100%) at zero concentration of VCM was referred to as B0. The decrease in the signal caused by each antibiotic concentration was expressed as the B/B0 ratio and was used to construct standard curves using a four-parameter logistic fitting in GraphPad Prism 8.0 software. The VCM half-inhibitory concentration (IC50) served as the sensitivity value for the comparison of assay variants and the cross-reactivity of analogs.
The checkerboard titration was employed to identify the optimal ratio of coating antigen to antibody, with concentrations taken in a serial fashion.

[2] = HPLC-MS/MS re-analysis of frozen VCM-spiked human serum (accuracy, stability); conditions: one week, several freeze/thaw cycles
Experimental: The same samples spiked with VCM were frozen and analyzed by HPLC-MS/MS one week later.
Frozen serum samples were thawed prior to analysis and assayed for VCM concentration by ELISA and LC-MS/MS in parallel. The procedure and sample preparation for LC-MS/MS analysis are detailed in the Supplementary File.
An aliquot (10 μL) of the analyte working solution and an aliquot (10 μL) of the IS working solution (1000 ng/ml) were added to an aliquot (100 μL) of serum. After vortexing the sample, 400 μL of cooled (4 °C) water contacting 15% trifluoroacetic acid was added for precipitation, and the sample was mixed well and centrifuged (2750 × g, 15 min, 4 °C). An aliquot (20 μL) of the supernatant was transferred to a test plate containing 230 μL ACN/H2O (10/90) solution for further UPLC-MS/MS analysis (Table S2). Calibration was constructed as a function of VCM concentrations versus corresponding peak area values (Figure S2).
Table S2. Calibration of spiked human serum samples using HPLC-MS/MS (n=4) […]
Figure S2. Calibration of spiked human serum samples using HPLC-MS/MS
Table S3. Recovery from spiked human serum samples using HPLC-MS/MS (N=6) […]
(1 picture or pasted object on this page, not shown here)

[3] = cited from earlier work

| Compound | IC50 [1] | CR (cross-reactivity) [1] [%] | stability in human serum [2] | recommended Ctrough range [3] [ng/mL] | CR (cross-reactivity) ([1]; listed as teicoplanin) [%] |
| --- | --- | --- | --- | --- | --- |
| NCC[C@H](O)C(=O)N[C@@H]1C[C@H](N)[C@@H](O[C@H]2O[C@H](CN)[C@@H](O)[C@H](O)[C@H]2O)[C@H](O)[C@H]1O[C@H]1O[C@H](CO)[C@@H](O)[C@H](N)[C@H]1O [Amikacin] | >10,000 ng/mL | <0.3 |  |  |  |
| CC[C@H]1OC(=O)[C@H](C)[C@@H](O[C@H]2C[C@@](C)(OC)[C@@H](O)[C@H](C)O2)[C@H](C)[C@@H](O[C@@H]2O[C@H](C)C[C@H](N(C)C)[C@H]2O)[C@](C)(O)C[C@@H](C)CN(C)[C@H](C)[C@@H](O)[C@]1(C)O [Azithromycin] | >10,000 ng/mL | <0.3 |  |  |  |
| CNC(C)C1CCC(N)C(OC2C(N)CC(N)C(OC3OCC(C)(O)C(NC)C3O)C2O)O1 (centres unmarked) [Gentamicin] | >10,000 ng/mL | <0.3 |  |  |  |
| CC(=O)NC[C@H]1CN(c2ccc(N3CCOCC3)c(F)c2)C(=O)O1 [Linezolid] | >10,000 ng/mL | <0.3 |  |  |  |
| C[C@@H](O)[C@H]1C(=O)N2C(C(=O)O)=C(S[C@@H]3CN[C@H](C(=O)N(C)C)C3)[C@H](C)[C@H]12 [Meropenem] | >10,000 ng/mL | <0.3 |  |  |  |
| CN(C)c1cc(NC(=O)CNC(C)(C)C)c(O)c2c1C[C@H]1C[C@H]3[C@H](N(C)C)C(O)=C(C(N)=O)C(=O)[C@@]3(O)C(O)=C1C2=O [Tigecycline] | >10,000 ng/mL | <0.3 |  |  |  |
| CN[C@H](CC(C)C)C(=O)N[C@H]1C(=O)N[C@@H](CC(N)=O)C(=O)N[C@H]2C(=O)N[C@H]3C(=O)N[C@H](C(=O)N[C@H](C(=O)O)c4cc(O)cc(O)c4-c4cc3ccc4O)[C@H](O)c3ccc(c(Cl)c3)Oc3cc2cc(c3O[C@@H]2O[C@H](CO)[C@@H](O)[C@H](O)[C@H]2O[C@H]2C[C@](C)(N)[C@H](O)[C@H](C)O2)Oc2ccc(cc2Cl)[C@H]1O [Vancomycin] |  |  | stability of the analyte in human serum | 15000 to 20000 |  |
| Colistin | >10,000 ng/mL | <0.3 |  |  |  |
| Eremomycin | 33.0 ng/mL | 104 |  |  |  |
| Polymyxin B | >10,000 ng/mL | <0.3 |  |  |  |
| Teicoplanin | >10,000 ng/mL | <0.3 |  |  | < 0.3 |
